According to ChEMBL document CHEMBL1671627, “Increasing trends in antimicrobial resistance among clinically important anaerobes and Bacteroides fragilis isolates causing nosocomial infections: emerging resistance to carbapenems” (2008):
Values after ≈ are worked out from the molar mass of the structure shown.

Tests used:
Parvimonas micra [1] = experiment: Antibacterial activity against beta-lactamase producing Micromonas micros assessed as susceptible isolates by CLSI agar dilution method; type: functional
Fusobacterium mortiferum [2] = experiment: Antibacterial activity against Fusobacterium mortiferum by CLSI agar dilution method; type: functional
[3] = tested on: Prevotella melaninogenica; experiment: Antibacterial activity against Prevotella melaninogenica by CLSI agar dilution method; type: functional
Bacteroides caccae [4] = experiment: Antibacterial activity against beta-lactamase producing Bacteroides caccae by CLSI agar dilution method; type: functional
Finegoldia magna [5] = experiment: Antibacterial activity against beta-lactamase producing Finegoldia magna assessed as susceptible isolates by CLSI agar dilution method; type: functional
Parvimonas micra [6] = experiment: Antibacterial activity against beta-lactamase producing Micromonas micros assessed as resistant isolates by CLSI agar dilution method; type: functional
[7] = tested on: Clostridium paraputrificum; experiment: Antibacterial activity against beta-lactamase producing Clostridium paraputrificum by CLSI agar dilution method; type: functional
Clostridium tertium [8] = experiment: Antibacterial activity against beta-lactamase producing Clostridium tertium by CLSI agar dilution method; type: functional
Fusobacterium mortiferum [9] = experiment: Antibacterial activity against Fusobacterium mortiferum assessed as resistant isolates by CLSI agar dilution method; type: functional
[10] = tested on: Peptostreptococcus anaerobius; experiment: Antibacterial activity against beta-lactamase producing Peptostreptococcus anaerobius assessed as susceptible isolates by CLSI agar dilution method; type: functional
Fusobacterium nucleatum [11] = experiment: Antibacterial activity against Fusobacterium nucleatum assessed as resistant isolates by CLSI agar dilution method; type: functional
Clostridium tertium [12] = experiment: Antibacterial activity against beta-lactamase producing Clostridium tertium assessed as susceptible isolates by CLSI agar dilution method; type: functional
Fusobacterium varium [13] = experiment: Antibacterial activity against Fusobacterium varium by CLSI agar dilution method; type: functional
[14] = tested on: Peptoniphilus asaccharolyticus; experiment: Antibacterial activity against beta-lactamase producing Peptoniphilus asaccharolyticus by CLSI agar dilution method; type: functional
Phocaeicola vulgatus [15] = experiment: Antibacterial activity against beta-lactamase producing Bacteroides vulgatus by CLSI agar dilution method; type: functional
[16] = tested on: Peptoniphilus asaccharolyticus; experiment: Antibacterial activity against beta-lactamase producing Peptoniphilus asaccharolyticus assessed as susceptible isolates by CLSI agar dilution method; type: functional
[17] = tested on: Prevotella melaninogenica; experiment: Antibacterial activity against Prevotella melaninogenica assessed as resistant isolates by CLSI agar dilution method; type: functional
Bacteroides fragilis [18] = experiment: Antibacterial activity against Bacteroides fragilis assessed as resistant isolates by CLSI agar dilution method; type: functional
Phocaeicola vulgatus [19] = experiment: Antibacterial activity against beta-lactamase producing Bacteroides vulgatus assessed as resistant isolates by CLSI agar dilution method; type: functional
Bacteroides caccae [20] = experiment: Antibacterial activity against beta-lactamase producing Bacteroides caccae assessed as resistant isolates by CLSI agar dilution method; type: functional
[21] = tested on: Peptostreptococcus anaerobius; experiment: Antibacterial activity against beta-lactamase producing Peptostreptococcus anaerobius by CLSI agar dilution method; type: functional
Bacteroides caccae [22] = experiment: Antibacterial activity against beta-lactamase producing Bacteroides caccae assessed as susceptible isolates by CLSI agar dilution method; type: functional
Prevotella intermedia [23] = experiment: Antibacterial activity against Prevotella intermedia by CLSI agar dilution method; type: functional
Prevotella buccae [24] = experiment: Antibacterial activity against Prevotella buccae by CLSI agar dilution method; type: functional; settings: Segatella buccae
Fusobacterium mortiferum [25] = experiment: Antibacterial activity against Fusobacterium mortiferum assessed as susceptible isolates by CLSI agar dilution method; type: functional
Fusobacterium varium [26] = experiment: Antibacterial activity against Fusobacterium varium assessed as resistant isolates by CLSI agar dilution method; type: functional
Phocaeicola vulgatus [27] = experiment: Antibacterial activity against beta-lactamase producing Bacteroides vulgatus assessed as susceptible isolates by CLSI agar dilution method; type: functional
Clostridium septicum [28] = experiment: Antibacterial activity against beta-lactamase producing Clostridium septicum by CLSI agar dilution method; type: functional
Prevotella intermedia [29] = experiment: Antibacterial activity against Prevotella intermedia assessed as resistant isolates by CLSI agar dilution method; type: functional
Bacteroides uniformis [30] = experiment: Antibacterial activity against beta-lactamase producing Bacteroides uniformis by CLSI agar dilution method; type: functional
Veillonella parvula = experiment: Antibacterial activity against Veillonella parvula by CLSI agar dilution method; type: functional
Bacteroides uniformis [31] = experiment: Antibacterial activity against beta-lactamase producing Bacteroides uniformis assessed as susceptible isolates by CLSI agar dilution method; type: functional
Finegoldia magna [32] = experiment: Antibacterial activity against beta-lactamase producing Finegoldia magna by CLSI agar dilution method; type: functional
[33] = tested on: Peptostreptococcus anaerobius; experiment: Antibacterial activity against beta-lactamase producing Peptostreptococcus anaerobius assessed as resistant isolates by CLSI agar dilution method; type: functional
Prevotella bivia [34] = experiment: Antibacterial activity against Prevotella bivia assessed as susceptible isolates by CLSI agar dilution method; type: functional
Clostridium perfringens = experiment: microbe, parasite or virus in culture; type: functional
Clostridium septicum [35] = experiment: Antibacterial activity against beta-lactamase producing Clostridium septicum assessed as resistant isolates by CLSI agar dilution method; type: functional
[36] = tested on: Bacteroides thetaiotaomicron; experiment: Antibacterial activity against beta-lactamase producing Bacteroides thetaiotaomicron assessed as resistant isolates by CLSI agar dilution method; type: functional
[37] = tested on: Fusobacterium necrophorum; experiment: Antibacterial activity against Fusobacterium necrophorum by CLSI agar dilution method; type: functional
Bacteroides fragilis [38] = experiment: Antibacterial activity against Bacteroides fragilis by CLSI agar dilution method; type: functional
Fusobacterium nucleatum [39] = experiment: Antibacterial activity against Fusobacterium nucleatum assessed as susceptible isolates by CLSI agar dilution method; type: functional
[40] = tested on: Fusobacterium necrophorum; experiment: Antibacterial activity against Fusobacterium necrophorum assessed as resistant isolates by CLSI agar dilution method; type: functional
Parvimonas micra [41] = experiment: Antibacterial activity against beta-lactamase producing Micromonas micros by CLSI agar dilution method; type: functional
Fusobacterium nucleatum [42] = experiment: Antibacterial activity against Fusobacterium nucleatum by CLSI agar dilution method; type: functional
[43] = tested on: Fusobacterium necrophorum; experiment: Antibacterial activity against Fusobacterium necrophorum assessed as susceptible isolates by CLSI agar dilution method; type: functional
Bacteroides fragilis [44] = experiment: Antibacterial activity against Bacteroides fragilis assessed as susceptible isolates by CLSI agar dilution method; type: functional
Clostridium tertium [45] = experiment: Antibacterial activity against beta-lactamase producing Clostridium tertium assessed as resistant isolates by CLSI agar dilution method; type: functional
[46] = tested on: Peptoniphilus asaccharolyticus; experiment: Antibacterial activity against beta-lactamase producing Peptoniphilus asaccharolyticus assessed as resistant isolates by CLSI agar dilution method; type: functional
Prevotella intermedia [47] = experiment: Antibacterial activity against Prevotella intermedia assessed as susceptible isolates by CLSI agar dilution method; type: functional
Prevotella bivia [48] = experiment: Antibacterial activity against Prevotella bivia by CLSI agar dilution method; type: functional
[49] = tested on: Clostridium paraputrificum; experiment: Antibacterial activity against beta-lactamase producing Clostridium paraputrificum assessed as susceptible isolates by CLSI agar dilution method; type: functional
Fusobacterium varium [50] = experiment: Antibacterial activity against Fusobacterium varium assessed as susceptible isolates by CLSI agar dilution method; type: functional
Bacteroides uniformis [51] = experiment: Antibacterial activity against beta-lactamase producing Bacteroides uniformis assessed as resistant isolates by CLSI agar dilution method; type: functional
[52] = tested on: Prevotella melaninogenica; experiment: Antibacterial activity against Prevotella melaninogenica assessed as susceptible isolates by CLSI agar dilution method; type: functional
[53] = tested on: Bacteroides thetaiotaomicron; experiment: Antibacterial activity against beta-lactamase producing Bacteroides thetaiotaomicron assessed as susceptible isolates by CLSI agar dilution method; type: functional
Prevotella buccae [54] = experiment: Antibacterial activity against Prevotella buccae assessed as resistant isolates by CLSI agar dilution method; type: functional, Segatella buccae
[55] = tested on: Bacteroides thetaiotaomicron; experiment: Antibacterial activity against beta-lactamase producing Bacteroides thetaiotaomicron by CLSI agar dilution method; type: functional
[56] = tested on: Clostridium paraputrificum; experiment: Antibacterial activity against beta-lactamase producing Clostridium paraputrificum assessed as resistant isolates by CLSI agar dilution method; type: functional
Clostridium septicum [57] = experiment: Antibacterial activity against beta-lactamase producing Clostridium septicum assessed as susceptible isolates by CLSI agar dilution method; type: functional
Prevotella buccae [58] = experiment: Antibacterial activity against Prevotella buccae assessed as susceptible isolates by CLSI agar dilution method; type: functional, Segatella buccae
Finegoldia magna [59] = experiment: Antibacterial activity against beta-lactamase producing Finegoldia magna assessed as resistant isolates by CLSI agar dilution method; type: functional
Prevotella bivia [60] = experiment: Antibacterial activity against Prevotella bivia assessed as resistant isolates by CLSI agar dilution method; type: functional

C[C@@H](O)[C@H]1C(=O)N2C(C(=O)O)=C(S[C@@H]3CN[C@H](C(=O)Nc4cccc(C(=O)O)c4)C3)[C@H](C)[C@H]12
Activity (Parvimonas micra [1]): 100% | MIC50 (Fusobacterium mortiferum [2]): 0.06 µg/mL (≈ 0.126 µM) | MIC90 (Fusobacterium mortiferum [2]): 0.12 µg/mL (≈ 0.252 µM) | MIC50 [3]: 0.12 µg/mL (≈ 0.252 µM) | MIC90 [3]: 0.5 µg/mL (≈ 1.05 µM) | MIC50 (Bacteroides caccae [4]): 1 µg/mL (≈ 2.1 µM) | MIC90 (Bacteroides caccae [4]): 2 µg/mL (≈ 4.21 µM) | Activity (Finegoldia magna [5]): 100% | Activity (Parvimonas micra [6]): 0% | MIC50 [7]: 0.12 µg/mL (≈ 0.252 µM) | MIC90 [7]: 4 µg/mL (≈ 8.41 µM) | MIC50 (Clostridium tertium [8]): 0.12 µg/mL (≈ 0.252 µM) | MIC90 (Clostridium tertium [8]): 4 µg/mL (≈ 8.41 µM) | Activity (Fusobacterium mortiferum [9]): 0% | Activity [10]: 100% | Activity (Fusobacterium nucleatum [11]): 0% | Activity (Clostridium tertium [12]): 96% | MIC50 (Fusobacterium varium [13]): 0.06 µg/mL (≈ 0.126 µM) | MIC90 (Fusobacterium varium [13]): 0.12 µg/mL (≈ 0.252 µM) | MIC50 [14]: 0.06 µg/mL (≈ 0.126 µM) | MIC90 [14]: 1 µg/mL (≈ 2.1 µM) | MIC50 (Phocaeicola vulgatus [15]): 1 µg/mL (≈ 2.1 µM) | MIC90 (Phocaeicola vulgatus [15]): 2 µg/mL (≈ 4.21 µM) | Activity [16]: 100% | Activity [17]: 0% | Activity (Bacteroides fragilis [18]): 5% | Activity (Phocaeicola vulgatus [19]): 4% | Activity (Bacteroides caccae [20]): 4% | MIC50 [21]: 0.06 µg/mL (≈ 0.126 µM) | MIC90 [21]: 1 µg/mL (≈ 2.1 µM) | Activity (Bacteroides caccae [22]): 92% | MIC50 (Prevotella intermedia [23]): 0.12 µg/mL (≈ 0.252 µM) | MIC90 (Prevotella intermedia [23]): 0.5 µg/mL (≈ 1.05 µM) | MIC50 (Prevotella buccae [24]): 0.12 µg/mL (≈ 0.252 µM) | MIC90 (Prevotella buccae [24]): 0.5 µg/mL (≈ 1.05 µM) | Activity (Fusobacterium mortiferum [25]): 100% | Activity (Fusobacterium varium [26]): 0% | Activity (Phocaeicola vulgatus [27]): 92% | MIC50 (Clostridium septicum [28]): 0.12 µg/mL (≈ 0.252 µM) | MIC90 (Clostridium septicum [28]): 4 µg/mL (≈ 8.41 µM) | Activity (Prevotella intermedia [29]): 0% | MIC50 (Bacteroides uniformis [30]): 1 µg/mL (≈ 2.1 µM) | MIC90 (Bacteroides uniformis [30]): 2 µg/mL (≈ 4.21 µM) | MIC (Veillonella parvula): 0.03 µg/mL (≈ 0.0631 µM) | Activity (Bacteroides uniformis [31]): 92% | MIC50 (Finegoldia magna [32]): 0.06 µg/mL (≈ 0.126 µM) | MIC90 (Finegoldia magna [32]): 1 µg/mL (≈ 2.1 µM) | Activity [33]: 0% | Activity (Prevotella bivia [34]): 100% | MIC50 (Clostridium perfringens): 0.12 µg/mL (≈ 0.252 µM) | MIC90 (Clostridium perfringens): 4 µg/mL (≈ 8.41 µM) | Activity (Clostridium septicum [35]): 0% | Activity [36]: 3% | MIC50 [37]: 0.06 µg/mL (≈ 0.126 µM) | MIC90 [37]: 0.12 µg/mL (≈ 0.252 µM) | MIC50 (Bacteroides fragilis [38]): 0.25 µg/mL (≈ 0.526 µM) | MIC90 (Bacteroides fragilis [38]): 4 µg/mL (≈ 8.41 µM) | Activity (Fusobacterium nucleatum [39]): 100% | Activity [40]: 0% | MIC50 (Parvimonas micra [41]): 0.06 µg/mL (≈ 0.126 µM) | MIC90 (Parvimonas micra [41]): 1 µg/mL (≈ 2.1 µM) | MIC50 (Fusobacterium nucleatum [42]): 0.06 µg/mL (≈ 0.126 µM) | MIC90 (Fusobacterium nucleatum [42]): 0.12 µg/mL (≈ 0.252 µM) | Activity [43]: 100% | Activity (Bacteroides fragilis [44]): 90% | Activity (Clostridium tertium [45]): 0% | Activity [46]: 0% | Activity (Prevotella intermedia [47]): 100% | MIC50 (Prevotella bivia [48]): 0.12 µg/mL (≈ 0.252 µM) | MIC90 (Prevotella bivia [48]): 0.5 µg/mL (≈ 1.05 µM) | Activity [49]: 96% | Activity (Fusobacterium varium [50]): 100% | Activity (Bacteroides uniformis [51]): 4% | Activity [52]: 100% | Activity [53]: 97% | Activity (Prevotella buccae [54]): 0% | MIC50 [55]: 1 µg/mL (≈ 2.1 µM) | MIC90 [55]: 4 µg/mL (≈ 8.41 µM) | Activity [56]: 0% | Activity (Clostridium septicum [57]): 96% | Activity (Prevotella buccae [58]): 100% | Activity (Finegoldia magna [59]): 0% | Activity (Prevotella bivia [60]): 0%
